Test results published in ChEMBL document CHEMBL1127951, “Synthesis and RNA cleaving activities of polyamine derived novel artificial ribonuclease” (Bioorg Med Chem Lett, 1994).

Test system: Nucleic Acid
Experiment: Binding affinity towards calf thymus DNA was determined
Format: nucleic-acid assay
Details: Bos taurus

Row | SMILES | K
1 | NCCC(=O)NCCN(CCNC(=O)Cc1c[nH]cn1)CCNC(=O)c1c2ccccc2nc2ccccc12 | 16000 M⁻¹
2 | NCCN(CCNC(=O)Cc1c[nH]cn1)CCNC(=O)c1c2ccccc2nc2ccccc12 | 22000 M⁻¹
3 | NCCN(CCN)CCNC(=O)c1c2ccccc2nc2ccccc12 | 150000 M⁻¹
